In publication PMC3878165 (Bioorganic & Medicinal Chemistry Letters, 2013):

target: SARS-CoV 3CLpro (Severe acute respiratory syndrome coronavirus, UniProt P0C6U8); assay type: biochemical

Structure (SMILES) | 3CLpro activity in words | loss in inhibition/activity
CC(C)(C)NC(=O)C(c1ccsc1)N(C(=O)Cn1nnc2ccccc21)c1ccc(NC(=O)C2CCCCC2)cc1 (centres unmarked) [13h] | loss of inhibition | –
CC(C)(C)NC(=O)C(c1ccsc1)N(C(=O)Cn1nnc2ccccc21)c1ccc(NC(=O)C(C)(C)C)cc1 (centres unmarked) [13e] | – | three-fold
COc1ncc(-c2ccc(N(Cc3ccsc3)C(=O)Cn3nnc4ccccc43)cc2)cn1 [17e] | micromolar activity | –
O=C(Cn1nnc2ccccc21)N(Cc1ccsc1)c1ccc(NCc2ccccc2)cc1 [16k] | potency comparable to probe ML300 | –
CC(C)(C)NC(=O)C(c1ccsc1)N(C(=O)Cn1nnc2ccccc21)c1ccc(NC(=O)C2CC2)cc1 (centres unmarked) [13f] | loss of inhibition | –
O=C(Nc1ccc(N(Cc2ccsc2)C(=O)Cn2nnc3ccccc32)cc1)C1CCCCC1 [16g] | weak inhibitor | –
CC(C)(C)NC(=O)C(c1ccsc1)N(C(=O)Cn1nnc2ccccc21)c1ccc(NS(C)(=O)=O)cc1 (centres unmarked) [13b] | – | three-fold
CNc1ccc(N(Cc2ccsc2)C(=O)Cn2nnc3ccccc32)cc1 [16j] | potency comparable to probe ML300 | –
CC(=O)Nc1ccc(N(C(=O)Cn2nnc3ccccc32)C(C(=O)NC(C)(C)C)c2ccsc2)cc1 (centres unmarked) [13a] | moderate micromolar activity | –
O=C(Nc1ccc(N(Cc2ccsc2)C(=O)Cn2nnc3ccccc32)cc1)c1ccccc1 [16h] | lack of activity | –
CC(C)COC(=O)Nc1ccc(N(C(=O)Cn2nnc3ccccc32)C(C(=O)NC(C)(C)C)c2ccsc2)cc1 (centres unmarked) [13l] | weak or inactive | –
